These results are taken from patent US9896445B2, “Heterocyclic inhibitors of ERK1 and ERK2 and their use in the treatment of cancer” (Asana Biosciences, LLC, priority 2015, dated 2018).

pIC50: −log10 of the molar value.

The target in one test is T1, ERK1 (Homo sapiens, UniProt P27361).
T1 construct: purchased Jubilant Biosys
As to the kind of experiment: ERK1 HTRF (biochemical) assay. The following applies: HTRF. The method, then:
ERK1 and ERK2 HTRF (Biochemical) Assays
These assays employed a homogeneous time resolved fluorescence (HTRF) technique. […] The plate was incubated at room temperature for 60 min with shaking. […] The IC50 values (half maximal inhibitory concentration values) were subsequently determined using a sigmoidal dose-response curve (variable slope) in GraphPad Prism® 5 software.

The target in the next test is T2, ERK2 (Homo sapiens, UniProt P28482).
T2 construct: purchased Jubilant Biosys
Kind of test: ERK2 HTRF (biochemical) assay. The following applies: HTRF. The method in brief:
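Compounds were tested as half-log dilutions from 0.0005 to 10 uM in Tris pH 7.5/MgCl2 buffer, with a substrate mix of 1 uM biotin-MBP peptide and 24 uM ATP and an enzyme mix of 25 nM ERK2. Reaction ran 60 min at room temperature. Phospho-MBP was detected by HTRF (Eu-anti-phospho-MBP/SA-APC, 665/620 nm), and IC50 was fitted with a variable-slope sigmoidal curve.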
(In general: TR-FRET usually uses a lanthanide donor and a delayed reading to cut background.)

T1 sequence (P27361 whole entry): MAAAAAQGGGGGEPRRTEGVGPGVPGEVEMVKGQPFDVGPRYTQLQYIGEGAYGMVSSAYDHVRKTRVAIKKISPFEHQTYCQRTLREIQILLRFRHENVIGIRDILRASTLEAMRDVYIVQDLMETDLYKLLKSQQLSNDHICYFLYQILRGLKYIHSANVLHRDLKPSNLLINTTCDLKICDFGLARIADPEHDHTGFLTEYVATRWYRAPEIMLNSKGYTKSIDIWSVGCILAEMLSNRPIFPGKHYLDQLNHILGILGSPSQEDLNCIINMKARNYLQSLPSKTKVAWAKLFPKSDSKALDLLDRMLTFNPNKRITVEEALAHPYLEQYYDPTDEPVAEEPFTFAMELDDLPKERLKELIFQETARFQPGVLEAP
T2 sequence (P28482 whole entry): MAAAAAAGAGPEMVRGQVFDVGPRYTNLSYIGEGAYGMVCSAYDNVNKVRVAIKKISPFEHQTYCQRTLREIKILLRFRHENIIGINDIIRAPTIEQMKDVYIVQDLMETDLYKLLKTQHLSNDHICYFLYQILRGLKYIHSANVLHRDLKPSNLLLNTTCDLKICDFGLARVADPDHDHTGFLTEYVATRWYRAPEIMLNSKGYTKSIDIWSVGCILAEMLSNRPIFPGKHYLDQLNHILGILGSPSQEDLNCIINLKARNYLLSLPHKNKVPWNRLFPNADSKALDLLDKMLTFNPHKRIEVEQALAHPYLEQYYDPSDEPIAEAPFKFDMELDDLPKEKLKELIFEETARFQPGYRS

For `Cc1cnc(Nc2ccc3c(c2)CCO3)nc1-n1ccc(C(=O)NC(CO)c2ccccc2)c1` (stereo not shown) [Compound 138, 1-(2-((2,3-dihydro-benzofuran-5-yl)amino)-5-methylpyrimidin-4-yl)-N-(2-hydroxy-1-phenylethyl)-1H-pyrrole-3-carboxamide], the pIC50 – broadly, the negative decadic logarithm of the IC50, by convention in mol/L – against ERK1 is above 7.30; at ERK2, at least 7.30.

On to `Cc1cnc(Nc2ccc3c(c2)OCCO3)nc1-n1ccc(C(=O)NC(CO)c2cccc(Cl)c2)c1` (stereo not shown) [Compound 139, N-(1-(3-chloro-phenyl)-2-hydroxyethyl)-1-(2-((2,3-dihydro-benzo[b][1,4]dioxin-6-yl)amino)-5-methylpyrimidin-4-yl)-1H-pyrrole-3-carboxamide], for which the results for the pIC50 against ERK1 and against ERK2 were above 7.30 and at least 7.30, respectively.

As to `Cc1cnc(Nc2ccc3[nH]ncc3c2)nc1-n1ccc(C(=O)NC(CO)c2ccccc2)c1` (stereo not shown) [Compound 140, 1-(2-((1H-indazol-5-yl)amino)-5-methylpyrimidin-4-yl)-N-(2-hydroxy-1-phenylethyl)-1H-pyrrole-3-carboxamide], the pIC50 against ERK1 was above 7.30; against ERK2, at least 7.30.

With `Cc1cnc(NC2CCCOC2)nc1-n1ccc(C(=O)NC(CO)c2ccccc2)c1` (stereo not shown) [Compound 141, N-(2-hydroxy-1-phenylethyl)-1-(5-methyl-2-((tetrahydro-2H-pyran-3-yl)amino)-pyrimidin-4-yl)-1H-pyrrole-3-carboxamide], the negative-log IC50 (pIC50) was above 7.30 at ERK1 and at least 7.30 on ERK2.

As to `COc1cc(F)ccc1Nc1ncc(C)c(-n2ccc(C(=O)NC(CO)c3cccc(Cl)c3)c2)n1` (stereo not shown) [Compound 142, N-(1-(3-chloro-phenyl)-2-hydroxy-ethyl)-1-(2-((4-fluoro-2-methoxy-phenyl)amino)-5-methylpyrimidin-4-yl)-1H-pyrrole-3-carboxamide], the pIC50 is above 7.30 on ERK1 and at least 7.30 against ERK2.

For the molecule `COc1c(F)cccc1Nc1ncc(C)c(-n2ccc(C(=O)NC(CO)c3cccc(Cl)c3)c2)n1` (stereo not shown) [Compound 143], the pIC50 against ERK1 was above 7.30; at ERK2, at least 7.30.

With `O=C(NC(CO)c1cccc(Cl)c1)c1ccn(-c2ccnc(NC3CCNC3)c2)c1` (stereo not shown) [Compound 145, N-(1-(3-chloro-phenyl)-2-hydroxy-ethyl)-1-(2-(pyrrolidin-3-ylamino)pyridin-4-yl)-1H-pyrrole-3-carboxamide], the negative-log IC50 (pIC50) on ERK1 is below 5.60; against ERK2, 5.60 to 6.30.

For the molecule `CC[C@@H](CO)Nc1ncc(C)c(-n2ccc(C(=O)NC(CO)c3cccc(Cl)c3)c2)n1` (stereo partly drawn) [Compound 146, N-(1-(3-chloro-phenyl)-2-hydroxy-ethyl)-1-(2-(((S)-1-hydroxybutan-2-yl)amino)-5-methylpyrimidin-4-yl)-1H-pyrrole-3-carboxamide], the results for the pIC50 at ERK1 and against ERK2 were above 7.30 and at least 7.30, respectively.

Consider `Cc1cnc(NC(CO)CO)nc1-n1ccc(C(=O)NC(CO)c2ccccc2)c1` (stereo not shown) [Compound 147, 1-(2-((1,3-dihydroxypropan-2-yl)amino)-5-methylpyrimidin-4-yl)-N-(2-hydroxy-1-phenylethyl)-1H-pyrrole-3-carboxamide], for which the pIC50 on ERK1 was 7.00 to 7.30; at ERK2 it was at least 7.30.

For the molecule `COc1ccc(Nc2ncc(C)c(-n3ccc(C(=O)NC(CO)c4ccccc4)c3)n2)cc1OCCN1CCN(C)CC1` (stereo not shown) [Compound 148, N-(2-hydroxy-1-phenylethyl)-1-(2-((4-methoxy-3-(2-(4-methylpiperazin-1-yl)ethoxy)-phenyl)amino)-5-methylpyrimidin-4-yl)-1H-pyrrole-3-carboxamide], the figures for the pIC50 against ERK1 and against ERK2 were above 7.30 and at least 7.30, respectively.

Consider `Cc1cnc(Nc2ccc(F)cc2Cl)nc1-n1ccc(C(=O)NC(COC(=O)C(N)CC(C)C)c2ccccc2)c1` (stereo not shown) [Compound 150, 2-(1-(2-((2-chloro-4-fluorophenyl)-amino)-5-methyl-pyrimidin-4-yl)-1H-pyrrole-3-carboxamido)-2-phenylethyl 2-amino-4-methyl-pentanoate], for which the pIC50 was 6.30 to 7.00 against ERK1 and at least 7.30 against ERK2.

For the molecule `Cc1cnc(NC2CCOC2)nc1-n1ccc(C(=O)N[C@H](CO)c2cccc(Cl)c2)c1` (stereo partly drawn) [Compound 151, N-((S)-1-(3-chlorophenyl)-2-hydroxyethyl)-1-(5-methyl-2-((tetrahydrofuran-3-yl)amino)pyrimidin-4-yl)-1H-pyrrole-3-carboxamide], the negative logarithm of the IC50 (pIC50) was above 7.30 against ERK1 and at least 7.30 against ERK2.

Turning to `Cc1cnc(NC2CCCOC2)nc1-n1ccc(C(=O)N[C@H](CO)c2cccc(Cl)c2)c1` (stereo partly drawn) [Compound 152, N-((S)-1-(3-chlorophenyl)-2-hydroxyethyl)-1-(5-methyl-2-((tetrahydro-2H-pyran-3-yl)amino)pyrimidin-4-yl)-1H-pyrrole-3-carboxamide], the pIC50 was above 7.30 against ERK1 and at least 7.30 against ERK2.

For `Cc1cnc(Nc2ccc(F)cc2)nc1-n1cc(C(=O)NC(CO)c2ccccc2)nc1C` (stereo not shown) [Compound 153, 1-(2-((4-Fluorophenyl)amino)-5-methylpyrimidin-4-yl)-N-(2-hydroxy-1-phenylethyl)-2-methyl-1H-imidazole-4-carboxamide], the pIC50 at ERK1 and on ERK2 was 6.30 to 7.00 in each case.

`COc1cc(Nc2ncc(C)c(-n3ccc(C(=O)NC(CO)c4ccccc4)c3)n2)ccc1F` (stereo not shown) [Compound 154, 1-(2-((4-fluoro-3-methoxyphenyl)amino)-5-methyl-pyrimidin-4-yl)-N-(2-hydroxy-1-phenylethyl)-1H-pyrrole-3-carboxamide]: the pIC50 against ERK1 is above 7.30; on ERK2, at least 7.30.

`Cc1cnc(Nc2ccc(F)cc2)nc1-n1cnc(C(=O)NC(CO)c2cccc(Cl)c2)c1` (stereo not shown) [Compound 155, N-(1-(3-chlorophenyl)-2-hydroxyethyl)-1-(2-((4-fluoro-phenyl)amino)-5-methylpyrimidin-4-yl)-1H-imidazole-4-carboxamide]: the pIC50 was above 7.30 at ERK1 and at least 7.30 on ERK2.

On to `Cc1cnc(NC2CCCOC2)nc1-n1ccc(C(=O)N[C@H](CO)c2cccc(Cl)c2)c1` (stereo partly drawn) [Compound 156, N-((S)-1-(3-chloro-phenyl)-2-hydroxy-ethyl)-1-(5-methyl-2-((tetrahydro-2H-pyran-3-yl)amino)-pyrimidin-4-yl)-1H-pyrrole-3-carboxamide], for which the pIC50 at ERK1 is above 7.30; against ERK2, at least 7.30.

For `Cc1cnc(NC2CCOC2)nc1-n1ccc(C(=O)N[C@H](CO)c2ccc(F)c(Cl)c2)c1` (stereo partly drawn) [Compound 157, N-((S)-1-(3-chloro-4-fluorophenyl)-2-hydroxyethyl)-1-(5-methyl-2-((tetrahydrofuran-3-yl)amino)pyrimidin-4-yl)-1H-pyrrole-3-carboxamide], the pIC50 against ERK1 was above 7.30; against ERK2, at least 7.30.

Regarding `CC(=O)NCC(NC(=O)c1ccn(-c2nc(Nc3ccc4c(c3)OC(F)(F)O4)ncc2C)c1)c1cccc(Cl)c1` (stereo not shown) [Compound 158, N-(2-acetamido-1-(3-chlorophenyl)-ethyl)-1-(2-((2,2-difluorobenzo[d] [1,3]dioxol-5-yl)-amino)-5-methyl-pyrimidin-4-yl)-1H-pyrrole-3-carboxamide], the pIC50 was 6.30 to 7.00 against ERK1 and 7.00 to 7.30 on ERK2.

On to `Cc1cnc(Nc2cccc3c2OC(F)(F)O3)nc1-n1ccc(C(=O)NC(CO)c2cccc(Cl)c2)c1` (stereo not shown) [Compound 160, N-(1-(3-chloro-phenyl)-2-hydroxy-ethyl)-1-(2-((2,2-difluoro-benzo[d][1,3]dioxol-4-yl)amino)-5-methylpyrimidin-4-yl)-1H-pyrrole-3-carboxamide], for which the negative-log IC50 (pIC50) at ERK1 is above 7.30; at ERK2, at least 7.30.

Consider `Cc1cnc(N[C@H]2CCOC2)nc1-n1ccc(C(=O)N[C@H](CO)c2cccc(Cl)c2)c1` [Compound 161, N-((S)-1-(3-chlorophenyl)-2-hydroxyethyl)-1-(5-methyl-2-(((S)-tetrahydrofuran-3-yl)amino)pyrimidin-4-yl)-1H-pyrrole-3-carboxamide], for which the pIC50 at ERK1 was above 7.30; against ERK2, at least 7.30.

Regarding `Cc1cnc(N[C@@H]2CCOC2)nc1-n1ccc(C(=O)N[C@H](CO)c2cccc(Cl)c2)c1` [Compound 162, N-((S)-1-(3-chlorophenyl)-2-hydroxyethyl)-1-(5-methyl-2-(((R)-tetrahydrofuran-3-yl)amino)pyrimidin-4-yl)-1H-pyrrole-3-carboxamide], the figures for the negative-log IC50 (pIC50) against ERK1 and against ERK2 were above 7.30 and at least 7.30, respectively.

For the molecule `O=C(NC(CO)c1cccc(Cl)c1)c1cn(-c2ccnc(Nc3ccc4c(c3)CCO4)c2)cn1` (stereo not shown) [Compound 163, N-(1-(3-chlorophenyl)-2-hydroxyethyl)-1-(2-((2,3-dihydrobenzofuran-5-yl)amino)pyridin-4-yl)-1H-imidazole-4-carboxamide], the pIC50 against ERK1 was above 7.30; on ERK2, at least 7.30.

For `Cc1cnc(Nc2ccc(F)cc2)cc1-n1ccc(C(=O)NC(CN)c2ccc(F)c(Cl)c2)c1` (stereo not shown) [Compound 164, N-(2-amino-1-(3-chloro-4-fluoro-phenyl)ethyl)-1-(2-((4-fluorophenyl)-amino)-5-methyl-pyridin-4-yl)-1H-pyrrole-3-carboxamide], the values for the pIC50 against ERK1 and against ERK2 were above 7.30 and at least 7.30, respectively.

As for `Cc1cnc(NC2CCOC2)cc1-n1ccc(C(=O)NC(CO)c2cccc(Cl)c2)c1` (stereo not shown) [Compound 165, N-(1-(3-chloro-phenyl)-2-hydroxyethyl)-1-(5-methyl-2-((tetrahydrofuran-3-yl)amino)pyridin-4-yl)-1H-pyrrole-3-carboxamide], the pIC50 is above 7.30 on ERK1 and at least 7.30 against ERK2.

On to `Cc1cnc(Nc2ccc(F)cc2Cl)nc1-n1cnc(C(=O)NC(CO)c2cccc(Cl)c2)c1` (stereo not shown) [Compound 166, 1-(2-((2-chloro-4-fluorophenyl)amino)-5-methyl-pyrimidin-4-yl)-N-(1-(3-chlorophenyl)-2-hydroxyethyl)-1H-imidazole-4-carboxamide], for which the pIC50 at ERK1 is above 7.30; against ERK2 it was at least 7.30.
